≈ marks a conversion by molar mass, not a printed value. Some results are limits rather than exact numbers.

These results are taken from ChEMBL document CHEMBL1138895, “Synthesis and antibacterial activity of nocathiacin I analogues” (Bioorg Med Chem Lett, 2006).

One data set deals with Streptococcus pneumoniae. As to the kind of experiment: Antibacterial activity against penicillin resistant Streptococcus pneumoniae A28272. In kind it is functional.
For a further data set, the species on record is Mus musculus. As to the kind of experiment: Activity against Staphylococcus aureus A15090 infected ICR mouse after 8 days. The data set is classed as functional. Conditions: 192 h, read-out: PD50.
In another data set the test system is Staphylococcus aureus. The data set is described as follows: Antibacterial activity against methicillin-sensitive Staphylococcus aureus A15090. In kind it is functional.
Data set [1] can be described thus: Solubility at pH 3.1. The data set is classed as physicochemical. Conditions: buffer.
A further data set concerns Enterococcus faecalis. The data set is described as follows: Antibacterial activity against […] A20688. In kind it is functional.
Data set [2] is described as follows: Solubility at pH 3.0. The data set is classed as physicochemical. Conditions: buffer.

Take `CO/C(C)=C1/NC(=O)[C@H]([C@@H](C)O)NC(=O)c2csc(n2)-c2cc(O)c(-c3nc(C(=O)N[C@@H](C)C(=O)NC[C@H](O)CO)cs3)nc2-c2csc(n2)[C@@H]2COC(=O)c3c4c5c(cccc5n3O)COC(=O)[C@@H](O[C@H]3C[C@](C)(O)[C@H](N(C)C)[C@H](C)O3)[C@@H](OC4)[C@H](NC(=O)c3csc1n3)c1nc(cs1)C(=O)N2`: the MIC (usually the lowest concentration found to suppress growth) with Streptococcus pneumoniae was found to be 0.03 µg/mL (≈ 0.0198 µM); against Staphylococcus aureus, 0.25 µg/mL (≈ 0.165 µM); in the data set with Enterococcus faecalis, 0.25 µg/mL (≈ 0.165 µM). Moreover, in the data set listed under Mus musculus, the ED50 was determined as 5 mg/kg. Besides, the solubility (commonly how much of the substance goes into solution per volume) in data set [1] is above 2200 µg/mL.
With `CO/C(C)=C1/NC(=O)[C@H]([C@@H](C)O)NC(=O)c2csc(n2)-c2cc(O)c(-c3nc(C(=O)N[C@@H](C)C(=O)NC(CC(=O)O)C(=O)O)cs3)nc2-c2csc(n2)[C@@H]2COC(=O)c3c4c5c(cccc5n3O)COC(=O)[C@@H](O[C@H]3C[C@](C)(O)[C@H](N(C)C)[C@H](C)O3)[C@@H](OC4)[C@H](NC(=O)c3csc1n3)c1nc(cs1)C(=O)N2` (stereo partly specified), the MIC against Streptococcus pneumoniae amounted to 0.25 µg/mL (≈ 0.161 µM); in the data set with Staphylococcus aureus it was 16 µg/mL (≈ 10.3 µM); in the data set on Enterococcus faecalis, 16 µg/mL (≈ 10.3 µM).
Consider `CO/C(C)=C1/NC(=O)[C@H]([C@@H](C)O)NC(=O)c2csc(n2)-c2cc(O)c(-c3nc(C(=O)N[C@@H](C)C(N)=O)cs3)nc2-c2csc(n2)[C@@H]2COC(=O)c3c4c5c(cccc5n3O)COC(=O)[C@@H](O[C@H]3C[C@](C)(O)[C@H](N(C)C)[C@H](C)O3)[C@@H](OC4)[C@H](NC(=O)c3csc1n3)c1nc(cs1)C(=O)N2`, for which the MIC was 0.06 µg/mL (≈ 0.0417 µM) against Streptococcus pneumoniae, 0.25 µg/mL (≈ 0.174 µM) with Staphylococcus aureus and 2 µg/mL (≈ 1.39 µM) in the data set with Enterococcus faecalis. Also, in the data set listed under Mus musculus, the ED50 is 1.65 mg/kg. Moreover, the solubility in data set [1] was determined as 700 µg/mL (≈ 486 µM).
In the same order, the values of `CO/C(C)=C1/NC(=O)[C@H]([C@@H](C)O)NC(=O)c2csc(n2)-c2cc(O)c(-c3nc(C(=O)N[C@@H](C)C(=O)N[C@@H]4[C@@H](O)[C@H](O)[C@@H](CO)O[C@H]4O)cs3)nc2-c2csc(n2)[C@@H]2COC(=O)c3c4c5c(cccc5n3O)COC(=O)[C@@H](O[C@H]3C[C@](C)(O)[C@H](N(C)C)[C@H](C)O3)[C@@H](OC4)[C@H](NC(=O)c3csc1n3)c1nc(cs1)C(=O)N2` are 0.06 µg/mL (≈ 0.0375 µM), 1 µg/mL (≈ 0.624 µM), 0.5 µg/mL (≈ 0.312 µM), above 10 mg/kg and above 2200 µg/mL.
Take `CO/C(C)=C1/NC(=O)[C@H]([C@@H](C)O)NC(=O)c2csc(n2)-c2cc(O)c(-c3nc(C(=O)N[C@@H](C)C(=O)NCCOCCO)cs3)nc2-c2csc(n2)[C@@H]2COC(=O)c3c4c5c(cccc5n3O)COC(=O)[C@@H](O[C@H]3C[C@](C)(O)[C@H](N(C)C)[C@H](C)O3)[C@@H](OC4)[C@H](NC(=O)c3csc1n3)c1nc(cs1)C(=O)N2`: the MIC against Streptococcus pneumoniae was determined as 0.015 µg/mL (≈ 0.00982 µM); with Staphylococcus aureus it was 0.03 µg/mL (≈ 0.0196 µM); against Enterococcus faecalis, 0.25 µg/mL (≈ 0.164 µM). In the data set listed under Mus musculus, the ED50 came out at 1 mg/kg. Moreover, the solubility in data set [1] was above 2900 µg/mL.
Turning to `CO/C(C)=C1/NC(=O)[C@H]([C@@H](C)O)NC(=O)c2csc(n2)-c2cc(O)c(-c3nc(C(=O)N[C@@H](C)C(=O)NCCO)cs3)nc2-c2csc(n2)[C@@H]2COC(=O)c3c4c5c(cccc5n3O)COC(=O)[C@@H](O[C@H]3C[C@](C)(O)[C@H](N(C)C)[C@H](C)O3)[C@@H](OC4)[C@H](NC(=O)c3csc1n3)c1nc(cs1)C(=O)N2`, the MIC against Streptococcus pneumoniae came to 0.001 µg/mL (≈ 0.000674 µM); against Staphylococcus aureus, 0.03 µg/mL (≈ 0.0202 µM); in the data set on Enterococcus faecalis, 0.5 µg/mL (≈ 0.337 µM). Also, in the data set listed under Mus musculus, the ED50 came out at 1.44 mg/kg. Besides, the solubility in data set [1] was 1300 µg/mL (≈ 876 µM).
Regarding `CO/C(C)=C1/NC(=O)[C@H]([C@@H](C)O)NC(=O)c2csc(n2)-c2cc(O)c(-c3nc(C(=O)N[C@@H](C)C(=O)NCCc4cc(O)cc(O)c4)cs3)nc2-c2csc(n2)[C@@H]2COC(=O)c3c4c5c(cccc5n3O)COC(=O)[C@@H](O[C@H]3C[C@](C)(O)[C@H](N(C)C)[C@H](C)O3)[C@@H](OC4)[C@H](NC(=O)c3csc1n3)c1nc(cs1)C(=O)N2`, the solubility in data set [2] is 20 µg/mL (≈ 12.7 µM). Further, the minimal inhibitory concentration (MIC) is 0.06 µg/mL (≈ 0.0381 µM) against Streptococcus pneumoniae, 0.25 µg/mL (≈ 0.159 µM) against Staphylococcus aureus and 0.5 µg/mL (≈ 0.317 µM) in the data set on Enterococcus faecalis. For the same compound, the ED50 in the data set filed under Mus musculus is above 10 mg/kg.
In the case of `CO/C(C)=C1/NC(=O)[C@H]([C@@H](C)O)NC(=O)c2csc(n2)-c2cc(O)c(-c3nc(C(=O)N[C@@H](C)C(=O)NCCc4ccncc4)cs3)nc2-c2csc(n2)[C@@H]2COC(=O)c3c4c5c(cccc5n3O)COC(=O)[C@@H](O[C@H]3C[C@](C)(O)[C@H](N(C)C)[C@H](C)O3)[C@@H](OC4)[C@H](NC(=O)c3csc1n3)c1nc(cs1)C(=O)N2`, the solubility in data set [2] was above 3400 µg/mL. In addition, the MIC is 0.015 µg/mL (≈ 0.00971 µM) in the data set on Streptococcus pneumoniae, 0.125 µg/mL (≈ 0.0809 µM) against Staphylococcus aureus and 0.06 µg/mL (≈ 0.0388 µM) with Enterococcus faecalis. For the same compound, the ED50 in the data set listed under Mus musculus came out at 3.3 mg/kg.
Turning to `CO/C(C)=C1/NC(=O)[C@H]([C@@H](C)O)NC(=O)c2csc(n2)-c2cc(O)c(-c3nc(C(=O)N[C@@H](C)C(=O)NCc4ccc(O)cc4)cs3)nc2-c2csc(n2)[C@@H]2COC(=O)c3c4c5c(cccc5n3O)COC(=O)[C@@H](O[C@H]3C[C@](C)(O)[C@H](N(C)C)[C@H](C)O3)[C@@H](OC4)[C@H](NC(=O)c3csc1n3)c1nc(cs1)C(=O)N2`, the figures for the MIC against Streptococcus pneumoniae, in the data set on Staphylococcus aureus and against Enterococcus faecalis were 0.007 µg/mL (≈ 0.00453 µM), 0.007 µg/mL (≈ 0.00453 µM) and 0.03 µg/mL (≈ 0.0194 µM), respectively. In the data set filed under Mus musculus, the ED50 is 4.35 mg/kg. The same compound came in with a solubility in data set [1] of 480 µg/mL (≈ 311 µM).
For the compound `CO/C(C)=C1/NC(=O)[C@H]([C@@H](C)O)NC(=O)c2csc(n2)-c2cc(O)c(-c3nc(C(=O)N[C@@H](C)C(=O)N4CCC[C@H]4CO)cs3)nc2-c2csc(n2)[C@@H]2COC(=O)c3c4c5c(cccc5n3O)COC(=O)[C@@H](O[C@H]3C[C@](C)(O)[C@H](N(C)C)[C@H](C)O3)[C@@H](OC4)[C@H](NC(=O)c3csc1n3)c1nc(cs1)C(=O)N2`, the MIC against Streptococcus pneumoniae was determined as 0.015 µg/mL (≈ 0.00984 µM); in the data set on Staphylococcus aureus it was 0.03 µg/mL (≈ 0.0197 µM); in the data set on Enterococcus faecalis it was 0.25 µg/mL (≈ 0.164 µM). Further, the ED50 in the data set listed under Mus musculus was determined as 2.18 mg/kg. Besides, the concentration in solution in data set [1] (solubility) came to 2200 µg/mL (≈ 1440 µM).
On to `CO/C(C)=C1/NC(=O)[C@H]([C@@H](C)O)NC(=O)c2csc(n2)-c2cc(O)c(-c3nc(C(=O)N[C@@H](C)C(=O)NCCc4ccc(O)c(O)c4)cs3)nc2-c2csc(n2)[C@@H]2COC(=O)c3c4c5c(cccc5n3O)COC(=O)[C@@H](O[C@H]3C[C@](C)(O)[C@H](N(C)C)[C@H](C)O3)[C@@H](OC4)[C@H](NC(=O)c3csc1n3)c1nc(cs1)C(=O)N2`, for which, in data set [2], the solubility came to 7 µg/mL (≈ 4.44 µM). For the same compound, the figures for the MIC against Streptococcus pneumoniae, in the data set with Staphylococcus aureus and against Enterococcus faecalis were 0.125 µg/mL (≈ 0.0793 µM), 0.25 µg/mL (≈ 0.159 µM) and 0.5 µg/mL (≈ 0.317 µM), respectively. Further, the ED50 in the data set filed under Mus musculus was above 10 mg/kg.
`COCCOCCOCCOCCNC(=O)[C@H](C)NC(=O)c1csc(-c2nc3c(cc2O)-c2nc(cs2)C(=O)N[C@@H]([C@@H](C)O)C(=O)N/C(=C(\C)OC)c2nc(cs2)C(=O)N[C@@H]2c4nc(cs4)C(=O)N[C@@H](COC(=O)c4c5c6c(cccc6n4O)COC(=O)[C@@H](O[C@H]4C[C@](C)(O)[C@H](N(C)C)[C@H](C)O4)[C@H]2OC5)c2nc-3cs2)n1`: the MIC against Streptococcus pneumoniae worked out at 0.003 µg/mL (≈ 0.00184 µM); in the data set with Staphylococcus aureus it was 0.06 µg/mL (≈ 0.0368 µM); with Enterococcus faecalis, 0.5 µg/mL (≈ 0.307 µM).
